Reference: patent EP4696306A1, “ADENOSINE TRIPHOSPHATE SECRETION INHIBITOR, HEPATIC STELLATE CELL ACTIVATION INHIBITOR, HEPATIC STELLATE CELL DEACTIVATOR, HEPATIC FIBROSIS THERAPEUTIC AGENT, NON-ALCOHOLIC STEATOHEPATITIS THERAPEUTIC AGENT, PSORIASIS THERAPEUTIC AGENT, AND USE OF COMPOUND FOR PRODUCING ADENOSINE TRIPHOSPHATE …” (KURUME UNIVERSITY, priority 2023, dated 2024)
Counter-ions that a name gives are not always drawn.

Assays:
V-ATPase [1] = biological target: T1, V-ATPase (Bos taurus, UniProt P31404); experiment: ATP-dependent proton transport by V-ATPase (acridine orange / oxonol-V fluorescence quenching); format: biochemical, bovine
T1 construct: from tissue; host or cells: bovine adrenal medulla chromaffin granule membranes
T1 sequence (P31404 whole entry, looked up): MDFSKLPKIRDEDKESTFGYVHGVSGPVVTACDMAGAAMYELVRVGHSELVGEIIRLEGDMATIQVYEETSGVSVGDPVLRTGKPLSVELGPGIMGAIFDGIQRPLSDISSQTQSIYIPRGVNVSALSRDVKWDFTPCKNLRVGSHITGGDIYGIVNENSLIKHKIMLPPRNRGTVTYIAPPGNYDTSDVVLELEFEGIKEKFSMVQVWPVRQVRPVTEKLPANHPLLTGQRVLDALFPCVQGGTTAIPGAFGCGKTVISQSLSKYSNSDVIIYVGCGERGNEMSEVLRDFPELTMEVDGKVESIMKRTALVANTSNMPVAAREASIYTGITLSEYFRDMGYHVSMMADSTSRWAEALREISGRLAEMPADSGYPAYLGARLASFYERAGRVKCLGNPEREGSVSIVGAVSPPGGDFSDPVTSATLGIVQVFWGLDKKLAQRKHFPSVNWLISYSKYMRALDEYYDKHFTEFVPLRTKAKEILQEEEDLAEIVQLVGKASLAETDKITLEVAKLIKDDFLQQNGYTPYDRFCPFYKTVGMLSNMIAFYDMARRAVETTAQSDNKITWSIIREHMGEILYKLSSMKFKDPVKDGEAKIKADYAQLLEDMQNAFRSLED
Method: (§1) Chromaffin granule membranes were prepared from adrenal glands collected from slaughtered cattle according to Reference A (Nathan Nelson et al., 1988, Chromaffin Granule Proton Pump, Methods in Enzymology, 157, 619-633). Chromaffin granule membranes prepared by sucrose density gradient centrifugation were suspended in 2 ml of SME buffer (20 mM MOPS-tris (pH 7.0), 0.3 M sucrose, 5 mM EDTA, 10 µg/ml leupeptin, and 10 µg/ml pepstatin) + 25% glycerol, and the resulting suspension was aliquoted and stored at -80°C. Under these conditions, the ATP transport activity, the V-ATPase activity, and the catecholamine transport activity remain fully active for at least one year.
ATP-dependent proton transport by V-ATPase was measured according to Reference B. Proton transport activity was measured using a spectrofluorometer at excitation wavelength of 492 nm and a fluorescence wavelength 540 nm, wherein fluorescence quenching of acridine orange was used as an index (N = 2). The transmembrane potential generated was measured using a spectrofluorometer at an excitation wavelength of 580 nm and a fluorescence wavelength of 630 nm, wherein fluorescence quenching of oxonol-V was used as an index (N = 2). The acridine measurement liquid (2 ml) contained 20 mM MOPS-tris (pH 7.0), 0.2 M sucrose, 0.1 M potassium chloride, 5 mM magnesium acetate, 0.2 µg valinomycin, 2 µM acridine orange, and about 20 µg of chromaffin granules. The oxonol-V measurement liquid (2 ml) contained 20 mM MOPS-tris (pH 7.0), 0.3 M sucrose, 5 mM magnesium acetate, 5 µM oxonol-V, and about 20 µg of chromaffin granules.
(§2) Chromaffin granule membrane vesicles were prepared in the same manner as in Example 5, and uptake of radiolabeled ATP into the vesicles was measured. Transport activity of catecholamine (dopamine) and ATP-dependent proton transport by V-ATPase were also measured in the same manner as in Example 5.

catecholamine transport = experiment: Catecholamine (3H-dopamine) transport in chromaffin granule membranes; format: biochemical, bovine; conditions: MANT-ATP; N = 3
Method: as §1
A catecholamine transport inhibition experiment was carried out in the same manner as the ATP transport experiment except that the experiment used a measurement liquid containing 20 mM MOPS-tris (pH 7.0), 0.1 M sucrose, 0.1 M potassium chloride, 5 mM magnesium acetate, and about 5 µg of chromaffin granule membranes. To 0.5 ml of the measurement liquid, 2 mM ATP was added, and the resulting mixture was incubated at 30°C for about 5 minutes, followed by addition of^3 [H]-dopamine thereto to a final concentration of 10 µM. After further incubation at 30°C for 15 minutes, 0.2 ml of the reaction liquid was subjected to suction filtration through a Millipore MCE membrane filter with a pore size of 0.45 µm, and the radioactivity on the filter was measured (N = 3). The substrate, ^3[H]-dopamine, was prepared by mixing 3,4-[RING-2,5,6-^3H]dihydroxyphenylethylamine (dopamine) (30 Ci/mmol) (manufactured by New England Nuclear) with dopamine hydrochloride (manufactured by LKT Laboratories) such that a final concentration of 0.1 mM was achieved during the use.
as §2

[2] = test system: ATP transport activity in isolated chromaffin granule membranes; experiment: ATP transport (3H-ATP uptake) in chromaffin granule membrane vesicles; format: biochemical, bovine; conditions: MANT-ATP; N = 3
[3] = test system: ATP transport activity in isolated chromaffin granule membranes; experiment: as above; format: biochemical, bovine; conditions: N = 3
Method: as §1
An ATP transport inhibition experiment for the chromaffin granule membrane was carried out according to Reference B (Yoshinori Moriyama et al., 2022, Is the vesicular nucleotide transporter a molecular target of eicosapentaenoic acid?, Frontiers in Pharmacology, 103389). About 20 µg of chromaffin granule membranes were added to 0.5 ml of measurement buffer (20 mM MOPS-tris (pH 7.0), 0.3 M sucrose, 5 mM potassium chloride, 5 mM magnesium acetate, 5 mM creatine phosphate, 10 units of creatine kinase, and 1 mM ^3[H]-ATP [15 KBq/assay]), followed by incubation at 30°C for 1 hour. Through a Millipore MCE membrane filter with a pore size 0.45 µm, 0.2 ml of the reaction liquid was filtered by suction. Thereafter, the filter was washed with 10 ml of 20 mM MOPS-tris (pH 7.0), 0.3 M sucrose, 5 mM potassium chloride, and 5 mM magnesium acetate, and dissolved in 10 ml of Clear-sol II (manufactured by Nacalai Tesque, Inc.). The radioactivity was then measured using a liquid scintillation counter (N = 3).
The reaction was initiated by adding 50 mM ^3[H]-ATP to a final concentration of 1 mM. The 50 mM ^3[H]-ATP was prepared by mixing an ATP-tris solution (manufactured by Sigma-Aldrich) with [2,8-^3H] adenosine triphosphate tetrasodium salt (26.0 Ci/mmol) (manufactured by New England Nuclear). PEP was used as a test reagent, and pyruvic acid was used as a negative control. Five minutes before the addition of ATP, PEP or pyruvic acid, as a solution in 20 mM MOPS-tris (pH 7.0), 0.3 M sucrose, 5 mM potassium chloride, and 5 mM magnesium acetate, was added to the measurement liquid to a final PEP concentration of 0.02, 0.05, 0.1, 0.2, 0.4, or 1 mM, or to a final pyruvic acid concentration of 0.5 or 1 mM.
as §2

[4] = test system: human epidermal keratinocytes; experiment: LPS-stimulated ATP secretion in keratinocytes; format: cell-based; conditions: 10 µM; 18 hours incubation, LPS 10 µg/ml 10 minutes; N = 8
Method: Keratinocytes were cultured in the same manner as in Example 1. Keratinocytes were cultured at 2.5 × 10^4 cells/well in a 24-well plate at 37°C in 5% CO2 for 4 days. The medium was replaced with a test solution (Hanks' balanced salt solution (HBSS) (manufactured by Gibco) supplemented with imeglimin, metformin, or clodronate), and then incubation was performed at 37°C in 5% CO2 for 18 hours. Thereafter, LPS (10 µg/ml) was added thereto, and incubation was further carried out for 10 minutes, followed by collection of 200 µl of the supernatant. The supernatant was immediately treated on a heat block at 95°C for 10 minutes, and ATP in the supernatant was quantified using an ATP Assay Kit - Luminescence (manufactured by Dojindo) (N = 8).

[5] = test system: human epidermal keratinocytes; experiment: ATP secretion promoted by ionomycin in keratinocytes; format: cell-based; conditions: 0.1 µM, 6 hours incubation, N = 3
Method: Human epidermal keratinocytes (Cryopreserved HEK, Lot 1758, Cell Applications Inc.) were cultured using an Epivita Keratinocyte Growth Medium Kit according to the manufacturer's instructions. The procedure was as follows. A supplement medium was added to a hydrocortisone-containing basal medium included in the medium preparation kit to prepare a complete medium. The medium in the dish was removed by aspiration. The cells were washed with 5 ml of BSS (Gbco), and then the BSS was removed by aspiration. After addition of 5 to 6 ml of trypsin/EDTA solution (Gbco), the dish was incubated at 37°C for 2 minutes. After addition of 5 ml of trypsin neutralization solution, the resulting cell suspension was transferred into two 15-ml Falcon tubes, and centrifuged at 200 × g for 5 minutes. The supernatant was removed by aspiration, and the pelleted cell cluster was suspended in 2 ml of the medium at 4.5 × 10^5 cells/ml. An aliquot of the resulting cell suspension was cryopreserved, while another aliquot was cultured and subjected to measurement.
ATP secretion by human epidermal keratinocytes (hereinafter referred to as "keratinocytes") was measured. Regarding control solutions, Krebs-Ringer HEPES supplemented with 0.2% BSA and 25 mM glucose (hereinafter also referred to as "Krebs/Iono(-)") was used as a negative control, and a solution prepared by adding 5 µM ionomycin to this solution (hereinafter also referred to as "Krebs/Iono(+)") was used as a positive control for ATP secretion. Ionomycin is a Ca^2+ ionophore. Addition of ionomycin to cells is known to promote influx of extracellular Ca^2+ into the cells to increase the intracellular Ca^2+ concentration, resulting in enhancement of ATP secretion. Test solutions were prepared by adding clodronate to Krebs/Iono(-) or Krebs/Iono(+) to a final concentration of 0.1 µM (hereinafter also referred to as "Clo/Iono(-)" or "Clo/Iono(+)", respectively) (N = 3).
Keratinocytes were cultured at 2.5 × 10^4 cells/well in a 24-well plate at 37°C in 5% CO2 for 4 days. The medium was removed by aspiration, replaced with Krebs/Iono(-) or Clo/Iono(-), and incubated at 37°C for 6 hours. These solutions were then removed by aspiration, and the content of each well incubated with Krebs/Iono(-) was replaced with 300 µl of a control solution (Krebs/Iono(-) or Krebs/Iono(+)), while the content of each well incubated with Clo/Iono(-) was replaced with 300 µl of a test solution (Clo/Iono(-) or Clo/Iono(+)). After further incubation at 37°C for 20 minutes, 200 µl of the supernatant was collected. The collected supernatant was immediately treated on a heat block at 95°C for 10 minutes, to inactivate ectonucleotidase. ATP in the supernatant was quantified using a Dojindo ATP assay kit - Luminescence (manufactured by Dojindo Laboratories).
After culturing keratinocytes, the medium was removed by aspiration, and replaced with Krebs/Iono(-), or Krebs/Iono(-) supplemented with 10 µM imeglimin, 0.1 µM EPA, 1 µM EPA, or 10 µM clodronate, followed by incubation for 6 hours. Subsequently, the solution was replaced with either a control solution (Krebs/Iono(-) or Krebs/Iono(+)) or a test solution (Krebs/Iono(+) supplemented with 10 µM imeglimin, 0.1 µM EPA, 1 µM EPA, or 10 µM clodronate), followed by incubation at 37°C for 20 minutes and then collection of 200 µl of the supernatant. The collected supernatant was immediately treated on a heat block at 95°C for 10 minutes to inactivate ectonucleotidase. ATP in the supernatant was quantified using a Dojindo ATP assay kit - Luminescence (manufactured by Dojindo Laboratories).
Keratinocytes were cultured in the same manner as in Example 1, and the medium was replaced with Krebs/Iono(-), Krebs/Iono(-) supplemented with 0.1 µM, 1 µM, or 10 µM imeglimin, or Krebs/Iono(-) supplemented with 0.1 µM, 1 µM, or 10 µM metformin, followed by incubation for 6 hours. […]

V-ATPase [6] = biological target: V-ATPase (Homo sapiens, UniProt P38606); experiment: Inhibitory effect on V-ATPase (data not shown); format: biochemical
Chain of V-ATPase (Homo sapiens, UniProt P38606) (P38606 whole entry): as the sequence (P31404 whole entry, looked up) above, with R10L, V131I, N157S, I199V, S204T, E576D, V590L, A599S counted along it

VNUT = biological target: T2, VNUT (Homo sapiens, UniProt Q9BYT1); experiment: Inhibitory effect on VNUT (data not shown); format: biochemical
T2 sequence (Q9BYT1 1-436): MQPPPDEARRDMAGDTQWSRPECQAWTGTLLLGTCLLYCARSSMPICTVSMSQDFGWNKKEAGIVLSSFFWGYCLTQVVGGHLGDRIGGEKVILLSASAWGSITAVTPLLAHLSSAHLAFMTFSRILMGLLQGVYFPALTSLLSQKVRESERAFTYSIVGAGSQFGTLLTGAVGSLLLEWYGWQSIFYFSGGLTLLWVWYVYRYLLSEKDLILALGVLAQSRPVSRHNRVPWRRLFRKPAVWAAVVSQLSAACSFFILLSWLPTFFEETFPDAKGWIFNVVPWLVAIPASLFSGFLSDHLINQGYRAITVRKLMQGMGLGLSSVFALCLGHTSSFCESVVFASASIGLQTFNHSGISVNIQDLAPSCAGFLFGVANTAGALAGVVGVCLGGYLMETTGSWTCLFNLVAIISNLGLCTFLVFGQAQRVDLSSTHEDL

SMILES | quenching of acridine orange fluorescence with MANT-ATP as substrate (V-ATPase [1]; addition of 0.1mM MANT-ATP, before addition of ATP) [%] | effect on ATP-dependent proton transport by V-ATPase (V-ATPase [1]; concentrations of up to 100 µM, N = 1) | effect on the catecholamine transport system (catecholamine transport) | inhibition of ATP transport [2] | ID50 of ATP transport [3] | ATP secretion upon LPS stimulation [4] | ATP secretion inhibitory effect, comparison and concentration dependence ([5]; 1 µM, 10 µM) | ATP secretion inhibitory effect [5] | inhibitory effect on V-ATPase (V-ATPase [6]) | inhibitory effect on VNUT (VNUT)
CNc1ccccc1C(=O)O[C@H]1[C@@H](O)[C@H](n2cnc3c(N)ncnc32)O[C@@H]1COP(=O)(O)OP(=O)(O)OP(=O)(O)O [MANT-ATP, 2'/3'-O-(N-methyl-anthraniloyl)-adenosine-5'-triphosphate triethylammonium salt] | 34 | did not affect | hardly affected | strongly inhibited ATP transport | about 30 mM |  |  |  |  | 
CN(C)C(=N)N=C(N)N [metformin] |  |  |  |  |  | almost completely inhibited | decreased inhibitory effect at higher concentrations | exhibit an ATP secretion inhibitory effect | neither imeglimin nor metformin exhibited a strong inhibitory effect | neither imeglimin nor metformin exhibited a strong inhibitory effect
